# Legend:
# [1] = target: T1, GI.9 Vancouver P domain (P dimer) of VP1 (Norovirus Hu/GI/Vancouver730/2004/CAN, UniProt F2XMU3); assay: X-ray crystal structure (soak), […] A; assay type: binding; conditions: crystal in 0.1 M bicine pH 9.0, 1.5-1.7 M MgCl2; soaked with 100 mM ligand overnight at 25 °C; HBGA site at P dimer interface
# T1 construct: P (protruding) domain, residues 229-540 of VP1; N11-SUMO fusion from E. coli cell-free system or E. coli KRX, tag cleaved with SUMO protease; homodimer, site formed by both protomers (P-loop from the other protomer)
# [2] = target: T1, GI.9 Vancouver P domain (P dimer) of VP1; assay: X-ray crystal structure (soak), […] A; assay type: binding; conditions: crystal in 0.1 M bicine pH 9.0, 1.5-1.7 M MgCl2; soaked with 100 mM ligand overnight at 25 °C; HBGA site at P dimer interface; remark: listed apart in the source
# [3] = target: P domain of the VP1 capsid protein of the GI.9 norovirus Vancouver 730 strain (norovirus GI.9, Vancouver 730 strain); assay: SEC; size-exclusion chromatogram of the synthesized P domain proteins; data not shown
compound,measurement,setting,value
CC(=O)N[C@H]1C(O)O[C@H](CO)[C@@H](O[C@@H]2O[C@@H](C)[C@@H](O)[C@@H](O)[C@@H]2O)[C@@H]1O[C@@H]1O[C@H](CO)[C@H](O)[C@H](O)[C@H]1O[C@@H]1O[C@@H](C)[C@@H](O)[C@@H](O)[C@@H]1O (stereo partly drawn) [Lewis b tetrasaccharide],"X-ray crystal structure (soak), 2.40 A",[1],crystal structures of the P domains complexed with each of Lewis b tetrasaccharide and Lewis x
CC(=O)N[C@H]1C(O)O[C@H](CO)[C@@H](O[C@@H]2O[C@H](CO)[C@H](O)[C@H](O)[C@H]2O)[C@@H]1O[C@@H]1O[C@@H](C)[C@@H](O)[C@@H](O)[C@@H]1O (stereo partly drawn) [Lewis x trisaccharide],"X-ray crystal structure (soak), 2.26 A",[2],P domains complexed with each of Lewis b tetrasaccharide and Lewis x trisaccharide
P domain of the VP1 capsid protein of the GI.9 norovirus Vancouver 730 strain (domain or fragment),stoichiometry N,[3],2

# Source: article PMC8886331, “Lewis fucose is a key moiety for the recognition of histo‐blood group antigens by GI.9 norovirus, as revealed by structural analysis” (FEBS Open Bio, 2022)
